Tests used:
Assay type in all cases: cell-based
HK-2 cells = assay: Inhibition of proliferation of HK-2 cells (normal cells; CCK8 or CTG); conditions: Homo sapiens, maximum concentration 10 μM, 5-fold dilution
Procedure: (1) HK-2 cells in the logarithmic growth phase were digested with 0.25% trypsin and counted. The cells were inoculated into 96-well plates at 2000 cells per well, and the 96-well plates were placed and cultured in an incubator containing 5% CO2 at 37° C. for 12 h.
(§1) (2) Six concentration gradients for the compound to be tested (with the maximum drug concentration of 10 μM and 5-fold dilution) were set. After the cells adhered to the wall, the compounds to be tested were serially diluted with DMSO, then diluted with 1640 complete medium to reach a concentration 1000 times the final concentration, and added to the corresponding wells.
(§2) (3) After the corresponding concentrations of the compounds to be tested were added, the plates were incubated in an incubator with 5% carbon dioxide at 37° C., and then the cell viability rate at each drug concentration was determined by CCK8 or CTG method. In addition, the IC50 value was calculated.

A549 cells = assay: Inhibition of proliferation of A549 cells (CCK8 or CTG); conditions: Homo sapiens, maximum concentration 10 μM, 5-fold dilution
Procedure: (1) A549 cells in the logarithmic growth phase were digested with 0.25% trypsin and counted. The cells were inoculated into 96-well plates at 2000 cells per well, and the 96-well plates were placed in an incubator containing 5% CO2 at 37° C. for 12 h of culture.
as §1, with “for the compounds to be” for “for the compound to be”
as §2

HL60 cells = assay: Inhibition of proliferation of HL60 tumor cells (CCK8 or CTG); conditions: Homo sapiens, HL-60
Procedure: The effect of the compound of the present disclosure on the proliferation of tumor cells was determined using the following method. The HL60 cells used in the method were purchased from Nanjing Kebai Biotechnology Co., Ltd., and the kit was the Cell Counting Kit-8/CCK-8 kit of MCE Company (article number: HY—K0301, specification: 3000T).
(1) HL60 cells in logarithmic growth phase were prepared into a cell suspension. The cell suspension was added into a 96-well plate at 5000 cells/well. The 96-well cell culture plate was placed in a CO2 incubator for 4 h of incubation of suspended cells or for 12 h of incubation of adherent cells.
(2) The compounds to be tested were diluted with IMDM complete culture medium to reach a concentration twice the testing concentration, and added to the corresponding wells.
as §2

Row | Compound | IC50 (HK-2 cells) [nM] | IC50 (A549 cells) [nM] | IC50 (HL60 cells) [nM]
1 | CC(C)NC1CC(C(=O)Nc2sc3c(c2-c2nc4ccccc4s2)CCNC3)C1 (stereo not drawn) [Compound 001, N-(3-(benzo[d]thiazol-2-yl)-4,5,6,7-tetrahydrothieno[2,3-c]pyridin-2-yl)-3-(isopropylamino)cyclobutane-1-carboxamide] | 759 | 0.49 | 
2 | CC(C)NC1CC(C(=O)Nc2sc3c(c2-c2nc4ccc(-c5ccc(N6CCNCC6)nc5)cc4s2)CCNC3)C1 (stereo not drawn) [Compound 009, 3-(isopropylamino)-N-(3-(6-(6-(piperazin-1-yl)pyridin-3-yl)benzo[d]thiazol-2-yl)-4,5,6,7-tetrahydrothieno [2,3-c]pyridin-2-yl) cyclobutane-1-carboxamide] |  | 0.53 | < 150
3 | Cc1cn(-c2ccc3nc(-c4c(NC(=O)C5CC(NC(C)C)C5)sc5c4CCNC5)sc3c2)cn1 (stereo not drawn) [Compound 014, 3-(isopropylamino)-N-(3-(6-(4-methyl-1H-imidazol-1-yl)benzo[d]thiazol-2-yl)-4,5,6,7-tetrahydrothieno[2,3-c]pyridin-2-yl)cyclobutane-1-carboxamide] |  |  | < 150
4 | CC(C)NC1CC(C(=O)Nc2sc3c(c2-c2nc4ccc(C5=CCN(C)CC5)cc4s2)CCNC3)C1 (stereo not drawn) [Compound 017, 3-(isopropylamino)-N-(3-(6-(1-methyl-1,2,3,6-tetrahydropyridin-4-yl)benzo[d]thiazol-2-yl)-4,5,6,7-tetrahydrothieno[2,3-c]pyridin-2-yl)cyclobutane-1-carboxamide] |  | 4.41 | < 150
5 | CC(C)NC1CC(C(=O)Nc2sc3c(c2-c2nc4cc(C5=CCNCC5)ccc4s2)CCNC3)C1 (stereo not drawn) [Compound 022, 3-(isopropylamino)-N-(3-(5-(1,2,3,6-tetrahydropyridin-4-yl)benzo[d]thiazol-2-yl)-4,5,6,7-tetrahydrothieno [2,3-c]pyridin-2-yl) cyclobutane-1-carboxamide] |  |  | < 150
6 | CC(C)NC1CC(C(=O)Nc2sc3c(c2-c2nc4ccc(-c5ccc(C6=CCNCC6)nc5)cc4s2)CCNC3)C1 (stereo not drawn) [Compound 047, 3-(isopropylamino)-N-(3-(6-(1′,2′,3′,6′-tetrahydro-[2, 4′-bipyridin]-5-yl)benzo [d]thiazol-2-yl)-4,5,6,7-tetrahydrothieno[2,3-c]pyridin-2-yl)cyclobutane-1-carboxamide] | 1610 | 18.3 | < 150
7 | CC(C)NC1CC(C(=O)Nc2sc3c(c2-c2nc4ccc(C5=CCNCC5)cc4s2)CCNC3)C1 (stereo not drawn) [Compound 048, 3-(isopropylamino)-N-(3-(6-(1,2,3,6-tetrahydropyridin-4-yl)benzo[d]thiazol-2-yl)-4,5,6,7-tetrahydrothieno[2,3-c]pyridin-2-yl)cyclobutane-1-formylamino] | 1160 | 3.35 | < 150
8 | CC(C)NC1CC(C(=O)Nc2sc3c(c2-c2nc4ccc(C5=CCNCC5)cc4s2)CCN(C2CCCC2)C3)C1 (stereo not drawn) [Compound 054, N-(6-cyclopentyl-3-(6-(1,2,3,6-tetrahydropyridin-4-yl)benzo[d]thiazol-2-yl)-4,5,6,7-tetrahydrothieno[2,3-c]pyridin-2-yl)-3-(isopropylamino)cyclobutane-1-carboxamide] |  | 21.8 | 
9 | CC(C)NC1CCC(C(=O)Nc2sc3c(c2-c2nc4ccc(-c5ccc(N6CCNCC6)nc5)cc4s2)CCNC3)C1 (stereo not drawn) [Compound 060, 3-(isopropylamino)-N-(3-(6-(6-(piperazin-1-yl)pyridin-3-yl)benzo[d]thiazol-2-yl)-4,5,6,7-tetrahydrothieno [2,3-c]pyridin-2-yl) cyclopentane-1-carboxamide] | 1100 | 16.8 | 
10 | CC(C)NC1CCC(C(=O)Nc2sc3c(c2-c2nc4ccc(-c5ccc(N6CCNCC6)nc5)cc4s2)CCNC3)CC1 (stereo not drawn) [Compound 069, 4-(isopropylamino)-N-(3-(6-(6-(piperazin-1-yl)pyridin-3-yl)benzo[d]thiazol-2-yl)-4,5,6,7-tetrahydrothieno [2,3-c]pyridin-2-yl) cyclohexane-1-carboxamide] | 2440 | 7.8 | < 150
11 | CC(C)NCCNC(=O)Nc1sc2c(c1-c1nc3ccccc3s1)CCNC2 [Compound 077, 1-(3-(benzo[d]thiazol-2-yl)-4,5,6,7-tetrahydrothieno[2,3-c]pyridin-2-yl)-3-(2-(isopropylamino)ethyl) urea] | 1260 | 43.4 | < 150
12 | CC(C)NCCCNc1sc2c(c1-c1nc3ccc(-c4ccc(N5CCNCC5)nc4)cc3s1)CCNC2 [Compound 082, N^1-isopropyl-N^3-(3-(6-(6-(piperazin-1-yl)pyridin-3-yl)benzo[d]thiazol-2-yl)-4,5,6,7-tetrahydrothieno[2,3-c]pyridin-2-yl) propane-1,3-diamine] | 4510 |  | 
13 | CN(C)CCNC(=O)CNc1sc2c(c1-c1nc3ccccc3s1)CCNC2 [Compound 086, 2-((3-(benzo[d]thiazol-2-yl)-4,5,6,7-tetrahydrothieno [2,3-c]pyridin-2-yl)amino)-N-(2-(dimethylamino)ethyl)acetamide] | 7560 |  | 
14 | COCCNC1CC(C(=O)Nc2sc3c(c2-c2nc4ccc(C5=CCNCC5)cc4s2)CCNC3)C1 (stereo not drawn) [Compound 119, 3-((2-methoxyethyl)amino)-N-(3-(6-(1,2,3,6-tetrahydropyridin-4-yl)benzo [d]thiazol-2-yl)-4,5,6,7-tetrahydrothieno[2,3-c]pyridin-2-yl)cyclobutane-1-carboxamide] |  |  | < 150
15 | Cc1cn(-c2ccc3sc(-c4c(NC(=O)C5CC(NC(C)C)C5)sc5c4CCNC5)nc3c2)cn1 (stereo not drawn) [Compound 121, 3-(isopropylamino)-N-(3-(5-(4-methyl-1H-imidazol-1-yl)benzo[d]thiazol-2-yl)-4,5,6,7-tetrahydrothieno [2,3-c]pyridin-2-yl) cyclobutane-1-carboxamide] | 725 |  | < 150
16 | CC(=O)N1CCc2c(sc(NC(=O)C3CC(NC(C)C)C3)c2-c2nc3ccc(-c4ccc(N5CCNCC5)nc4)cc3s2)C1 (stereo not drawn) [Compound 122, N-(6-acetyl-3-(6-(6-(piperazin-1-yl)pyridin-3-yl)benzo[d]thiazol-2-yl)-4,5,6,7-tetrahydrothieno[2,3-c]pyridin-2-yl)-3-(isopropylamino)cyclobutane-1-carboxamide] | 1040 |  | 
17 | CC(C)NC1CCC(C(=O)Nc2sc3c(c2-c2nc4ccc(Br)cc4s2)CCNC3)CC1 (stereo not drawn) [Compound 123, N-(3-(6-bromobenzo[d]thiazol-2-yl)-4,5,6,7-tetrahydrothieno[2,3-c]pyridin-2-yl)-4-(isopropylamino) cyclohexane-1-carboxamide] | 937 |  | 
18 | CC(C)NC1CCC(C(=O)Nc2sc3c(c2-c2nc4ccc(C5=CCNCC5)cc4s2)CCNC3)CC1 (stereo not drawn) [Compound 124, 4-(isopropylamino)-N-(3-(6-(1,2,3,6-tetrahydropyridin-4-yl)benzo[d]thiazol-2-yl)-4,5,6,7-tetrahydrothieno [2,3-c]pyridin-2-yl) cyclohexane-1-carboxamide] | 3260 | 7.37 | 
19 | CNCCNC(=O)C(=O)Nc1sc2c(c1-c1nc3ccc(C4=CCNCC4)cc3s1)CCNC2 [Compound 125, N^1-(2-(methylamino)ethyl)-N^2-(3-(6-(1,2,3,6-tetrahydropyridin-4-yl)benzo [d]thiazol-2-yl)-4,5,6,7-tetrahydrothieno[2,3-c]pyridin-2-yl)oxalamide] | 11100 | 65.2 | 
20 | CN1CCN(c2sc3c(c2-c2nc4ccc(-c5ccc(N6CCNCC6)nc5)cc4s2)CCNC3)CC1 [Compound 126, 2-(2-(4-methylpiperazin-1-yl)-4,5,6,7-tetrahydrothieno [2,3-c]pyridin-3-yl)-6-(6-(piperazin-1-yl)pyridin-3-yl)benzo[d]thiazole] | 1180 |  | 
21 | CC(C)NC1CC(C(=O)N(C)c2sc3c(c2-c2nc4ccc(-c5ccc(N6CCNCC6)nc5)cc4s2)CCNC3)C1 (stereo not drawn) [Compound 134, 3-(isopropylamino)-N-methyl-N-(3-(6-(6-(piperazin-1-yl)pyridin-3-yl)benzo [d]thiazol-2-yl)-4,5,6,7-tetrahydrothieno[2,3-c]pyridin-2-yl)cyclobutane-1-carboxamide] |  | 0.66 | 
22 | CC(=O)NC1CC(C(=O)Nc2sc3c(c2-c2nc4ccc(C5=CCN(C(C)=O)CC5)cc4s2)CCNC3)C1 (stereo not drawn) [Compound 141] | 1460 |  | 
23 | CC(C)NCCC(=O)Nc1sc2c(c1-c1nc(-c3ccccc3)cs1)CCNC2 [Compound b, reference compound] | 242 | 98.3 | 
